How the values were obtained:
giant foxtail = assay: Test B pre/postemergence giant foxtail; format: in vivo, Setaria faberii
In short: (§1)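 Response is a visual 0-to-10 score relative to untreated plants, where 0 means no effect and 10 means complete control, taken twelve to sixteen days after application. Treatments went onto soil at planting and onto foliage of 1- to 4-leaf plants, using a surfactant-containing non-phytotoxic solvent.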

cocklebur = assay: Test B pre/postemergence cocklebur; format: in vivo, Xanthium strumarium
In short: as §1

duck salad = assay: Test B flood test duck salad; format: in vivo, Heteranthera limosa
In short: (§2)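 Plants were grown to the 2-leaf stage before treatment with test chemical, then held in a greenhouse for twelve to sixteen days. Injury was visually rated against untreated controls on a 0–10 scale, where 0 is no effect and 10 is complete control.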

morningglory = assay: Test B pre/postemergence morningglory; format: in vivo, Ipomoea hederacea
In short: as §1

rice = assay: Test B flood test rice; format: in vivo, Oryza sativa
In short: as §2

rape = assay: Test B pre/postemergence rape; format: in vivo, Brassica napus
In short: as §1

crabgrass = assay: Test B pre/postemergence crabgrass; format: in vivo, Digitaria sanguinalis
In short: as §1

velvetleaf = assay: Test B pre/postemergence velvetleaf; format: in vivo, Abutilon theophrasti
In short: as §1

bamyardgrass = assay: Test B flood test barnyardgrass; format: in vivo, Echinochloa crus-galli
In short: as §2

corn = assay: Test B pre/postemergence corn; format: in vivo, Zea mays
In short: as §1

surinam grass = assay: Test B pre/postemergence surinam grass; format: in vivo, Brachiaria decumbens
In short: as §1

purple nutsedge = assay: Test B pre/postemergence purple nutsedge; format: in vivo, Cyperus rotundus; conditions: Postemergence
In short: as §1

pigweed = assay: Test B pre/postemergence pigweed; format: in vivo, Amaranthus retroflexus
In short: as §1

blackgrass = assay: Test B pre/postemergence blackgrass; format: in vivo, Alopecurus myosuroides
In short: as §1

wild oat = assay: Test B pre/postemergence wild oat; format: in vivo, Avena fatua
In short: as §1

sugar beet = assay: Test B pre/postemergence sugar beet; format: in vivo, Beta vulgaris
In short: as §1

soybean = assay: Test B pre/postemergence soybean; format: in vivo, Glycine max
In short: as §1

smallflower flatsedge = assay: Test B flood test smallflower flatsedge; format: in vivo, Cyperus difformis
In short: as §2

wheat = assay: Test B pre/postemergence wheat; format: in vivo, Triticum aestivum
In short: as §1

bedstraw = assay: Test B pre/postemergence bedstraw; format: in vivo, Galium aparine
In short: as §1

[1] = Preemergence, Rate 62 g/ha, scale of 0 to 10 where 0 is no effect and 10 is complete control
[2] = Preemergence, Rate 250 g/ha, scale of 0 to 10 where 0 is no effect and 10 is complete control
[3] = Preemergence, Rate 500 g/ha, scale of 0 to 10 where 0 is no effect and 10 is complete control
[4] = Rate 125 g/ha, Preemergence, scale of 0 to 10 where 0 is no effect and 10 is complete control
[5] = Rate 500 g/ha, Postemergence, scale 0 to 10, 0 no effect, 10 complete control
[6] = Rate 62 g/ha, Postemergence, scale of 0 to 10 where 0 is no effect and 10 is complete control
[7] = Rate 125 g/ha, Postemergence, scale 0 to 10
[8] = Rate 62 g/ha, headed Pre-emergence (flood test species), scale 0 to 10 (0 no effect, 10 complete control)
[9] = Rate 125 g/ha, Pre-emergence, flood test species, scale 0 to 10 where 0 is no effect and 10 is complete control
[10] = Rate 250 g/ha, Pre-emergence, flood-test species, scale 0 to 10, 0 is no effect, 10 is complete control
[11] = Rate 500 g/ha, Pre-emergence, flood test species, scale 0 to 10 (0 no effect, 10 complete control)

COCCOCn1c(=O)on(C(=O)N(c2ccc(F)cc2)C(C)C)c1=O [Compound 258]
Giant foxtail plant response rating (giant foxtail; [1]): 8 | Giant foxtail plant response rating (giant foxtail; [2]): 10 | Plant response rating, Giant foxtail (giant foxtail; [3]): 10 | Giant foxtail plant response rating (giant foxtail; [4]): 9 | Plant response rating (0 to 10; 0 is no effect, 10 is complete control), Giant foxtail (giant foxtail; Rate 250 g/ha, Postemergence): 4 | Giant foxtail plant response rating (giant foxtail; [5]): 7 | Cocklebur plant response rating (cocklebur; [1]): 0 | Cocklebur plant response rating (cocklebur; [2]): 0 | Plant response rating, Cocklebur (cocklebur; [3]): 0 | Cocklebur plant response rating (cocklebur; [6]): 0 | Cocklebur plant response rating (cocklebur; [7]): 0 | Cocklebur plant response rating (cocklebur; [4]): 0 | Plant response rating (0 to 10; 0 is no effect, 10 is complete control), Cocklebur (cocklebur; Rate 250 g/ha, Postemergence): 0 | Cocklebur plant response rating (cocklebur; [5]): 1 | Ducksalad plant response rating (duck salad; [8]): 0 | Ducksalad plant response rating (duck salad; [9]): 0 | Ducksalad plant response rating (duck salad; [10]): 0 | Ducksalad plant response rating (duck salad; [11]): 0 | Morningglory plant response rating (morningglory; [1]): 0 | Morningglory plant response rating (morningglory; [2]): 0 | Plant response rating, Morningglory (morningglory; [3]): 0 | Morningglory plant response rating (morningglory; [4]): 0 | Plant response rating (0 to 10; 0 is no effect, 10 is complete control), Morningglory (morningglory; Rate 250 g/ha, Postemergence): 7 | Morningglory plant response rating (morningglory; [5]): 10 | Rice plant response rating (rice; [8]): 0 | Rice plant response rating (rice; [9]): 0 | Rice plant response rating (rice; [10]): 0 | Rice plant response rating (rice; [11]): 0 | Rape plant response rating (rape; [1]): 0 | Rape plant response rating (rape; [2]): 5 | Plant response rating, Rape (rape; [3]): 7 | Rape plant response rating (rape; [4]): 1 | Plant response rating (0 to 10; 0 is no effect, 10 is complete control), Rape (rape; Rate 250 g/ha, Postemergence): 0 | Rape plant response rating (rape; [5]): 3 | Crabgrass plant response rating (crabgrass; [1]): 3 | Crabgrass plant response rating (crabgrass; [2]): 9 | Plant response rating, Crabgrass (crabgrass; [3]): 10 | Crabgrass plant response rating (crabgrass; [4]): 7 | Plant response rating (0 to 10; 0 is no effect, 10 is complete control), Crabgrass (crabgrass; Rate 250 g/ha, Postemergence): 2 | Crabgrass plant response rating (crabgrass; [5]): 5 | Velvetleaf plant response rating (velvetleaf; [1]): 2 | Velvetleaf plant response rating (velvetleaf; [2]): 5 | Plant response rating, Velvetleaf (velvetleaf; [3]): 7 | Velvetleaf plant response rating (velvetleaf; [4]): 5 | Velvetleaf plant response rating (velvetleaf; [5]): 0 | Barnyardgrass plant response rating (bamyardgrass; [8]): 0 | Barnyardgrass plant response rating (bamyardgrass; [9]): 0 | Barnyardgrass plant response rating (bamyardgrass; [10]): 0 | Barnyardgrass plant response rating (bamyardgrass; [11]): 0 | Corn plant response rating (corn; [1]): 0 | Corn plant response rating (corn; [2]): 3 | Plant response rating, Corn (corn; [3]): 5 | Corn plant response rating (corn; [6]): 0 | Corn plant response rating (corn; [7]): 0 | Corn plant response rating (corn; [4]): 2 | Plant response rating (0 to 10; 0 is no effect, 10 is complete control), Corn (corn; Rate 250 g/ha, Postemergence): 0 | Corn plant response rating (corn; [5]): 0 | B. signalgrass plant response rating (surinam grass; [1]): 0 | B. signalgrass plant response rating (surinam grass; [2]): 7 | Plant response rating, B. signalgrass (surinam grass; [3]): 8 | B. signalgrass plant response rating (surinam grass; [6]): 0 | B. signalgrass plant response rating (surinam grass; Rate 125 g/ha, Postemergence, scale 0 (no effect) to 10 (complete control)): 0 | B. signalgrass plant response rating (surinam grass; [4]): 4 | Plant response rating (0 to 10; 0 is no effect, 10 is complete control), B. signalgrass (surinam grass; Rate 250 g/ha, Postemergence): 4 | B. signalgrass plant response rating (surinam grass; [5]): 8 | Plant response rating (0 to 10; 0 is no effect, 10 is complete control), Nutsedge (purple nutsedge; Rate 250 g/ha): 0 | Nutsedge plant response rating (purple nutsedge; Rate 500 g/ha, scale 0 to 10, 0 no effect, 10 complete control): 0 | Redroot pigweed plant response rating (pigweed; [1]): 0 | Redroot pigweed plant response rating (pigweed; [2]): 7 | Plant response rating, Redroot pigweed (pigweed; [3]): 10 | Redroot pigweed plant response rating (pigweed; [4]): 2 | Plant response rating (0 to 10; 0 is no effect, 10 is complete control), Redroot pigweed (pigweed; Rate 250 g/ha, Postemergence): 2 | Redroot pigweed plant response rating (pigweed; [5]): 3 | Blackgrass plant response rating (blackgrass; [1]): 6 | Blackgrass plant response rating (blackgrass; [2]): 8 | Plant response rating, Blackgrass (blackgrass; [3]): 8 | Blackgrass plant response rating (blackgrass; [6]): 1 | Blackgrass plant response rating (blackgrass; [7]): 5 | Blackgrass plant response rating (blackgrass; [4]): 8 | Plant response rating (0 to 10; 0 is no effect, 10 is complete control), Blackgrass (blackgrass; Rate 250 g/ha, Postemergence): 7 | Blackgrass plant response rating (blackgrass; [5]): 7 | Wild oats plant response rating (wild oat; [1]): 2 | Wild oats plant response rating (wild oat; [2]): 5 | Plant response rating, Wild oats (wild oat; [3]): 6 | Wild oats plant response rating (wild oat; [4]): 4 | Wild oats plant response rating (wild oat; [5]): 3 | Sugarbeets plant response rating (sugar beet; [1]): 0 | Sugarbeets plant response rating (sugar beet; [2]): 5 | Plant response rating, Sugarbeets (sugar beet; [3]): 7 | Sugarbeets plant response rating (sugar beet; [4]): 2 | Sugarbeets plant response rating (sugar beet; [5]): 2 | Soybean plant response rating (soybean; [1]): 0 | Soybean plant response rating (soybean; [2]): 2 | Plant response rating, Soybean (soybean; [3]): 3 | Soybean plant response rating (soybean; [4]): 0 | Soybean plant response rating (soybean; [5]): 6 | S. Flatsedge plant response rating (smallflower flatsedge; [8]): 0 | S. Flatsedge plant response rating (smallflower flatsedge; [9]): 0 | S. Flatsedge plant response rating (smallflower flatsedge; [10]): 0 | S. Flatsedge plant response rating (smallflower flatsedge; [11]): 0 | Wheat plant response rating (wheat; [1]): 0 | Wheat plant response rating (wheat; [2]): 4 | Plant response rating, Wheat (wheat; [3]): 7 | Wheat plant response rating (wheat; [4]): 4 | Wheat plant response rating (wheat; [5]): 6 | Bedstraw plant response rating (bedstraw; [1]): 0 | Bedstraw plant response rating (bedstraw; [2]): 3 | Plant response rating, Bedstraw (bedstraw; [3]): 10 | Bedstraw plant response rating (bedstraw; [6]): 2 | Bedstraw plant response rating (bedstraw; [7]): 4 | Bedstraw plant response rating (bedstraw; [4]): 3 | Plant response rating (0 to 10; 0 is no effect, 10 is complete control), Bedstraw (bedstraw; Rate 250 g/ha, Postemergence): 7 | Bedstraw plant response rating (bedstraw; [5]): 8

— patent US6737383B1, “Herbicidal oxadiazolidines” (priority 1999, dated 2004)
